Experimental data from ChEMBL document CHEMBL1155858, “Derivatives of (3S)-N-(biphenyl-2-ylmethyl)pyrrolidin-3-amine as selective noradrenaline reuptake inhibitors: Reducing P-gp mediated efflux by modulation of H-bond acceptor capacity” (Bioorg Med Chem Lett, 2008).

tested on: not listed separately; test: Ratio of permeability from basolateral to apical side over apical to basolateral side of MDCK cells expressing MDR1 gene; details: dog

Row | efflux ratio | SMILES
1 | 5.1 | CS(=O)(=O)N(Cc1ccccc1-c1ccccc1)[C@H]1CCNC1
2 | 6.1 | CC(C)C(=O)N(Cc1ccccc1-c1ccccc1)[C@H]1CCNC1
3 | 4 | CN(C)S(=O)(=O)N(Cc1ccccc1-c1ccccc1)[C@H]1CCNC1
4 | 26 | O=C(N1CCCC1)N(Cc1ccccc1-c1ccccc1)[C@H]1CCNC1

molecular target: Sodium-dependent serotonin transporter (Homo sapiens, UniProt P31645); test: Inhibition of [3H]citalopram uptake at human 5HTT expressed in HEK293 cells by SPA; format: cell-based; details: not given
Sequence (P31645 whole entry): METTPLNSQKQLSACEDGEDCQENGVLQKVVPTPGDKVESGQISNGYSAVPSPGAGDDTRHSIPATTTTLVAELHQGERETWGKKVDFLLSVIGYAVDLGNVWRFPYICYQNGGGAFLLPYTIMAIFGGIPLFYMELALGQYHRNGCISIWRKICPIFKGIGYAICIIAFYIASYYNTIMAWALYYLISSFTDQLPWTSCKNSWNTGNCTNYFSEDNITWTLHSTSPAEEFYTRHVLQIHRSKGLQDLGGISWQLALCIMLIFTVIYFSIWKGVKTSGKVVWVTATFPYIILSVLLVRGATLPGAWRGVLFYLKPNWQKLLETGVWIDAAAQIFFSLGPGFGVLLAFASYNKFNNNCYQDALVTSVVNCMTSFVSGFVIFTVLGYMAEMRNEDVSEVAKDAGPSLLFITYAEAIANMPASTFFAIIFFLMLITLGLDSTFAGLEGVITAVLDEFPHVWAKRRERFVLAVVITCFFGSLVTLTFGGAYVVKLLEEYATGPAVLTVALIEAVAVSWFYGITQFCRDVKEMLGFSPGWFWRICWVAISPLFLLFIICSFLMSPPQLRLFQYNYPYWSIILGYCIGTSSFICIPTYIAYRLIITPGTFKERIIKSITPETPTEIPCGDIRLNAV

Row | Ki | SMILES
5 | 0.124 µM | CC(C)C(=O)N(Cc1ccccc1C1CC1)[C@H]1CCNC1
6 | 0.353 µM | CCOC(=O)N(Cc1ccccc1SC)[C@H]1CCNC1
7 | 5.81 µM | CC(=O)N(Cc1ccccc1-c1ccccc1)[C@H]1CCNC1
8 | 0.415 µM | CC(C)CC(=O)N(Cc1ccccc1-c1ccccc1)[C@H]1CCNC1
9 | 2.68 µM | CCC(=O)N(Cc1ccccc1-c1ccccc1)[C@H]1CCNC1
10 | 0.05 µM | CSc1ccccc1CN(C(=O)C(C)C)[C@H]1CCNC1
11 | 0.133 µM | CC(C)C(=O)N(Cc1ccccc1C(F)(F)F)[C@H]1CCNC1
12 | 0.96 µM | CC(C)C(=O)N(Cc1ccccc1-c1ccccc1)[C@H]1CCNC1

Further lines, the compound ahead of its results:

Row | SMILES | Ki
13 | CCCC(=O)N(Cc1ccccc1-c1ccccc1)[C@H]1CCNC1 | 0.73 µM
14 | CS(=O)(=O)N(Cc1ccccc1Oc1ccccc1)[C@H]1CCNC1 | 2.7 µM
15 | CS(=O)(=O)N(Cc1ccccc1-c1ccccc1)[C@@H]1CCNC1 | 5.35 µM
16 | CCS(=O)(=O)N(Cc1ccccc1-c1ccccc1)[C@H]1CCNC1 | 5.62 µM
17 | O=CN(Cc1ccccc1-c1ccccc1)[C@H]1CCNC1 | 0.869 µM
18 | c1ccc(-c2ccccc2CN[C@H]2CCNC2)cc1 | 1.07 µM
19 | CCOC(=O)N(Cc1ccccc1-c1ccccc1)[C@@H]1CCNC1 | 0.41 µM
20 | CS(=O)(=O)N(Cc1ccccc1-c1ccccc1)[C@H]1CCNC1 | 4.12 µM
21 | CN(C)S(=O)(=O)N(Cc1ccccc1-c1ccccc1)[C@H]1CCNC1 | 3.33 µM

molecular target: Cytochrome P450 2D6 (Homo sapiens, UniProt P10635); test: Inhibition of CYP2D6; format: ADME; details: not given
Sequence (P10635 whole entry): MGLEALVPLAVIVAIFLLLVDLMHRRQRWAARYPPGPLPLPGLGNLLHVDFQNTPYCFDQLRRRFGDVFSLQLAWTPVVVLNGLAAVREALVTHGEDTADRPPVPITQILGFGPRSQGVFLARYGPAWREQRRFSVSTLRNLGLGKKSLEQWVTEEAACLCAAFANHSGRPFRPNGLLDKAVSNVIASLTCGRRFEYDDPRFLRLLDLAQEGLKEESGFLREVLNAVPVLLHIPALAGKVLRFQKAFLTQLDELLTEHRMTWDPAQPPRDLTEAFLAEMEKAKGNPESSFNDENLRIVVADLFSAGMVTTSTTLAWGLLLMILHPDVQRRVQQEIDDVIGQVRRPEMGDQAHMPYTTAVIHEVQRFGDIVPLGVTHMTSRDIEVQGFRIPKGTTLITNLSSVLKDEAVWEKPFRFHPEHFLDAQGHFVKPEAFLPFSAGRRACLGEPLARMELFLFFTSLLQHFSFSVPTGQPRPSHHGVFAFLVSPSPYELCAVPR

Row | IC50 | SMILES
22 | 5.36 µM | CS(=O)(=O)N(Cc1ccccc1-c1ccccc1)[C@@H]1CCNC1
23 | 1.89 µM | CCS(=O)(=O)N(Cc1ccccc1-c1ccccc1)[C@H]1CCNC1
24 | 0.35 µM | CCOC(=O)N(Cc1ccccc1-c1ccccc1)[C@@H]1CCNC1
25 | 3.1 µM | CS(=O)(=O)N(Cc1ccccc1-c1ccccc1)[C@H]1CCNC1
26 | 1.86 µM | CC(C)C(=O)N(Cc1ccccc1-c1ccccc1)[C@H]1CCNC1
27 | 0.84 µM | CN(C)S(=O)(=O)N(Cc1ccccc1-c1ccccc1)[C@H]1CCNC1

molecular target: Cytochrome P450 2C9 (Homo sapiens, UniProt P11712); test: Inhibition of CYP2C9; format: ADME; details: not given
Sequence (P11712 whole entry): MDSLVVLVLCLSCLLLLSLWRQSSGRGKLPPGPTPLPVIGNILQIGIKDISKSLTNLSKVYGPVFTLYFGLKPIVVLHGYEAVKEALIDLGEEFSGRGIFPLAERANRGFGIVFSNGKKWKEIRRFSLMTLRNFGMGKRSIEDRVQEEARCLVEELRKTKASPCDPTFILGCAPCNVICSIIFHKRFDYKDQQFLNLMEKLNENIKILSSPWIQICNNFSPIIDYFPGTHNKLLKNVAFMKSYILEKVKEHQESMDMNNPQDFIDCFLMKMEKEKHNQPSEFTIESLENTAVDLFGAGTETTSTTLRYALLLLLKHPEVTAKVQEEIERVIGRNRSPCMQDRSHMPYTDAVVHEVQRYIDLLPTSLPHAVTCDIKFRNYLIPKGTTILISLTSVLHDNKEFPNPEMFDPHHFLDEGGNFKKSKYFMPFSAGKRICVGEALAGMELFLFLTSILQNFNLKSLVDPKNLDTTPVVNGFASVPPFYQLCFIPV

Row | IC50 | SMILES
28 | > 3 µM | CS(=O)(=O)N(Cc1ccccc1-c1ccccc1)[C@H]1CCNC1
29 | > 3 µM | CC(C)C(=O)N(Cc1ccccc1-c1ccccc1)[C@H]1CCNC1

tested on: not listed separately; test: Dissociation constant, pKa of the compound; format: physicochemical; details: not given

Row | pKa | SMILES
30 | 8.9 | CS(=O)(=O)N(Cc1ccccc1-c1ccccc1)[C@H]1CCNC1
31 | 9.4 | CC(C)C(=O)N(Cc1ccccc1-c1ccccc1)[C@H]1CCNC1

species: Homo sapiens; test: Selectivity for human NET over human SERT; details: not given

Row | Ratio Ki | SMILES
32 | > 100 | CS(=O)(=O)N(Cc1ccccc1-c1ccccc1)[C@H]1CCNC1

tested on: not listed separately; test: Distribution coefficient, log D at pH 7.4; format: physicochemical; details: octanol/water

Row | logD | SMILES
33 | 0.6 | CS(=O)(=O)N(Cc1ccccc1-c1ccccc1)[C@H]1CCNC1
34 | 0.8 | CC(C)C(=O)N(Cc1ccccc1-c1ccccc1)[C@H]1CCNC1

tested on: Hepatocyte; test: Metabolic stability in human hepatocytes assessed as intrinsic clearance; format: ADME, cell-based, Liver; details: not given

Row | CL | SMILES
35 | < 5 µL/min/mg | CS(=O)(=O)N(Cc1ccccc1-c1ccccc1)[C@H]1CCNC1

species: Homo sapiens; test: Selectivity for human NET over human DAT; details: not given

Row | Ratio Ki | SMILES
36 | > 100 | CS(=O)(=O)N(Cc1ccccc1-c1ccccc1)[C@H]1CCNC1

molecular target: Sodium-dependent noradrenaline transporter (Homo sapiens, UniProt P23975); test: Inhibition of [3H]nisoxetine reuptake at human NET expressed in HEK293 cells by SPA; format: cell-based; details: not given
Sequence (P23975 whole entry): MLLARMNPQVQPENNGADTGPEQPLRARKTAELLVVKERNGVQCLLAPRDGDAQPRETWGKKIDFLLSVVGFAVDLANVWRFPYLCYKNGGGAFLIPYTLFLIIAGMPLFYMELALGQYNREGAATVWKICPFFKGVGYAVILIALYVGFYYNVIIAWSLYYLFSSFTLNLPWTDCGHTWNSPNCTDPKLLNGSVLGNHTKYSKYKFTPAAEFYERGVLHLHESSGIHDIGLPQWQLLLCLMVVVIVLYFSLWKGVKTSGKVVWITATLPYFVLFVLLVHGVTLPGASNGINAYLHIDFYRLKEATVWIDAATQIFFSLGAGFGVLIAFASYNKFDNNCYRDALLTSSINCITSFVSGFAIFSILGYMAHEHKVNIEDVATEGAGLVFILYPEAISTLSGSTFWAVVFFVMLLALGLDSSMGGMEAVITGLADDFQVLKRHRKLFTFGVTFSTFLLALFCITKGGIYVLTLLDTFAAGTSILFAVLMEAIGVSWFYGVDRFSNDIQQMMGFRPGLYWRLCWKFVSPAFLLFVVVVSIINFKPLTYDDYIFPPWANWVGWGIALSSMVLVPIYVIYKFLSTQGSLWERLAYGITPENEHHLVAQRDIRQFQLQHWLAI

Row | Ki | SMILES
37 | 0.074 µM | CC(C)C(=O)N(Cc1ccccc1C1CC1)[C@H]1CCNC1
38 | 0.089 µM | CCOC(=O)N(Cc1ccccc1SC)[C@H]1CCNC1
39 | 0.124 µM | CC(=O)N(Cc1ccccc1-c1ccccc1)[C@H]1CCNC1
40 | 0.03 µM | CC(C)CC(=O)N(Cc1ccccc1-c1ccccc1)[C@H]1CCNC1
41 | 0.03 µM | CCC(=O)N(Cc1ccccc1-c1ccccc1)[C@H]1CCNC1
42 | 0.065 µM | CSc1ccccc1CN(C(=O)C(C)C)[C@H]1CCNC1
43 | 0.063 µM | CC(C)C(=O)N(Cc1ccccc1C(F)(F)F)[C@H]1CCNC1
44 | 0.006 µM | CC(C)C(=O)N(Cc1ccccc1-c1ccccc1)[C@H]1CCNC1

Further lines, the compound ahead of its results:

Row | SMILES | Ki
45 | CCCC(=O)N(Cc1ccccc1-c1ccccc1)[C@H]1CCNC1 | 0.025 µM
46 | CS(=O)(=O)N(Cc1ccccc1Oc1ccccc1)[C@H]1CCNC1 | 0.096 µM
47 | CS(=O)(=O)N(Cc1ccccc1-c1ccccc1)[C@@H]1CCNC1 | 0.029 µM
48 | CCS(=O)(=O)N(Cc1ccccc1-c1ccccc1)[C@H]1CCNC1 | 0.005 µM
49 | O=CN(Cc1ccccc1-c1ccccc1)[C@H]1CCNC1 | 0.118 µM
50 | c1ccc(-c2ccccc2CN[C@H]2CCNC2)cc1 | 0.271 µM
51 | CCOC(=O)N(Cc1ccccc1-c1ccccc1)[C@@H]1CCNC1 | 0.016 µM
52 | CS(=O)(=O)N(Cc1ccccc1-c1ccccc1)[C@H]1CCNC1 | 0.005 µM
53 | CN(C)S(=O)(=O)N(Cc1ccccc1-c1ccccc1)[C@H]1CCNC1 | 0.008 µM
54 | O=C(N1CCCC1)N(Cc1ccccc1-c1ccccc1)[C@H]1CCNC1 | 0.027 µM

molecular target: Cytochrome P450 3A4 (Homo sapiens, UniProt P08684); test: Inhibition of CYP3A4; format: ADME; details: not given
Sequence (P08684 whole entry): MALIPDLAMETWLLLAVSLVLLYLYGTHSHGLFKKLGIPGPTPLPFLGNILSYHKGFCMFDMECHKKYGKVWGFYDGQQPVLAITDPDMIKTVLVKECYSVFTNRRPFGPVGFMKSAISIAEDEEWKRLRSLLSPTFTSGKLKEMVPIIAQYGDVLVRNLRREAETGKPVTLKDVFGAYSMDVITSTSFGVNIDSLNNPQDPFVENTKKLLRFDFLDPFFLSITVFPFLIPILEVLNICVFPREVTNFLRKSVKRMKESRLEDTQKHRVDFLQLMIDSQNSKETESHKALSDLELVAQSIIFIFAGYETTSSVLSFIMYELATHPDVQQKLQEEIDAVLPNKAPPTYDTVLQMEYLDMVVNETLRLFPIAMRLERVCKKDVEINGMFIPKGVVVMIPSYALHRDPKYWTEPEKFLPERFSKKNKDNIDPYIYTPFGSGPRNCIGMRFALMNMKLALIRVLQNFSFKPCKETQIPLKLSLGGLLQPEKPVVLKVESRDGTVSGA

Row | IC50 | SMILES
55 | > 3 µM | CS(=O)(=O)N(Cc1ccccc1-c1ccccc1)[C@H]1CCNC1
56 | > 3 µM | CC(C)C(=O)N(Cc1ccccc1-c1ccccc1)[C@H]1CCNC1

tested on: not listed separately; test: Metabolic stability in human liver microsomes assessed as intrinsic clearance; format: ADME, Microsome; details: not given

Row | microsomal CLint | SMILES
57 | < 7 µL/min/mg | CC(=O)N(Cc1ccccc1-c1ccccc1)[C@H]1CCNC1
58 | 9 µL/min/mg | CC(C)CC(=O)N(Cc1ccccc1-c1ccccc1)[C@H]1CCNC1
59 | < 7 µL/min/mg | CCC(=O)N(Cc1ccccc1-c1ccccc1)[C@H]1CCNC1
60 | < 7 µL/min/mg | CC(C)C(=O)N(Cc1ccccc1C(F)(F)F)[C@H]1CCNC1
61 | < 7 µL/min/mg | CC(C)C(=O)N(Cc1ccccc1-c1ccccc1)[C@H]1CCNC1

The remaining lines, values behind:

Row | SMILES | microsomal CLint
62 | CCCC(=O)N(Cc1ccccc1-c1ccccc1)[C@H]1CCNC1 | < 7 µL/min/mg
63 | CS(=O)(=O)N(Cc1ccccc1-c1ccccc1)[C@@H]1CCNC1 | < 7 µL/min/mg
64 | CCS(=O)(=O)N(Cc1ccccc1-c1ccccc1)[C@H]1CCNC1 | < 7 µL/min/mg
65 | CCOC(=O)N(Cc1ccccc1-c1ccccc1)[C@@H]1CCNC1 | < 7 µL/min/mg
66 | CS(=O)(=O)N(Cc1ccccc1-c1ccccc1)[C@H]1CCNC1 | 7 µL/min/mg
67 | CN(C)S(=O)(=O)N(Cc1ccccc1-c1ccccc1)[C@H]1CCNC1 | 16 µL/min/mg

tested on: not listed separately; test: Apparent permeability from apical to basolateral side of the MDCK cells expressing MDR1 gene; format: ADME, cell-based, Canis lupus familiaris; details: dog

Row | Papp A→B | SMILES
68 | 100 nm/s | CS(=O)(=O)N(Cc1ccccc1-c1ccccc1)[C@H]1CCNC1
69 | 110 nm/s | CC(C)C(=O)N(Cc1ccccc1-c1ccccc1)[C@H]1CCNC1
70 | 170 nm/s | CN(C)S(=O)(=O)N(Cc1ccccc1-c1ccccc1)[C@H]1CCNC1
71 | 20 nm/s | O=C(N1CCCC1)N(Cc1ccccc1-c1ccccc1)[C@H]1CCNC1

tested on: not listed separately; test: Apparent permeability from basolateral to apical side of the MDCK cells expressing MDR1 gene; format: ADME, cell-based, Canis lupus familiaris; details: dog

Row | Papp B→A | SMILES
72 | 510 nm/s | CS(=O)(=O)N(Cc1ccccc1-c1ccccc1)[C@H]1CCNC1
73 | 680 nm/s | CC(C)C(=O)N(Cc1ccccc1-c1ccccc1)[C@H]1CCNC1
74 | 680 nm/s | CN(C)S(=O)(=O)N(Cc1ccccc1-c1ccccc1)[C@H]1CCNC1
75 | 530 nm/s | O=C(N1CCCC1)N(Cc1ccccc1-c1ccccc1)[C@H]1CCNC1

molecular target: Voltage-gated inwardly rectifying potassium channel KCNH2 (Homo sapiens, UniProt Q12809); test: Displacement of [3H]dofetilide from human ERG channel; details: not given
Sequence (Q12809 whole entry): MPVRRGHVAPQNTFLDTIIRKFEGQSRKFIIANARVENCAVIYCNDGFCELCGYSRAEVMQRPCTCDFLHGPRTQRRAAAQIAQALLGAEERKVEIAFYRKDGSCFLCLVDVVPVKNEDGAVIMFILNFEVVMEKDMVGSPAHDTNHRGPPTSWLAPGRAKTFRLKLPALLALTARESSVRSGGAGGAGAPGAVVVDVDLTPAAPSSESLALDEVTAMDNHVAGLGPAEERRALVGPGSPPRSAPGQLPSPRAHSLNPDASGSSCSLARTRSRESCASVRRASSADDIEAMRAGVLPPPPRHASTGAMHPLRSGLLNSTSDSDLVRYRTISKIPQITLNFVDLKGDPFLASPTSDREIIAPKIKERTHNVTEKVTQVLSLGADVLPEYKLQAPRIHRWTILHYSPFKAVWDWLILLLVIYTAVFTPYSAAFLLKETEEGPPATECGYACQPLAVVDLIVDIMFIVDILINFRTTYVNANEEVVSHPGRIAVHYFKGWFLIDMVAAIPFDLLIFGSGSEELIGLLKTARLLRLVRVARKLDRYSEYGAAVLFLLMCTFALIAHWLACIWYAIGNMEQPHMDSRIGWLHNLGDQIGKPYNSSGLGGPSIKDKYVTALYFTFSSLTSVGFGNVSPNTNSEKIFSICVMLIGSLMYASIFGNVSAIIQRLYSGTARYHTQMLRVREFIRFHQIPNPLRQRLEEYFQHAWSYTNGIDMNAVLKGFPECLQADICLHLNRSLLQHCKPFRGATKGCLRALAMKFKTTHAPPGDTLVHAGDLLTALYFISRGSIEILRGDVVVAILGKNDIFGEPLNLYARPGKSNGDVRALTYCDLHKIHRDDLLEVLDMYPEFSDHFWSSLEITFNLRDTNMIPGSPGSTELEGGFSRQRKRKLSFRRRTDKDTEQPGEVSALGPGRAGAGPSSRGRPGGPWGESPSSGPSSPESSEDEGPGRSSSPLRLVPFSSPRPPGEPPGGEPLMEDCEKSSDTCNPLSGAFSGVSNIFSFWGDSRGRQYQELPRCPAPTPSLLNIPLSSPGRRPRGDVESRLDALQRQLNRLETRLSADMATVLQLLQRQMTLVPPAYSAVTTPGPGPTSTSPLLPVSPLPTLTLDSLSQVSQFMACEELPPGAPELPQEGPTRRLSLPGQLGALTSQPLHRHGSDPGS

Row | SMILES | Ki
76 | CS(=O)(=O)N(Cc1ccccc1-c1ccccc1)[C@H]1CCNC1 | > 2.7 µM
77 | CC(C)C(=O)N(Cc1ccccc1-c1ccccc1)[C@H]1CCNC1 | 2.84 µM

molecular target: not listed separately; test: Inhibition of sodium channel site 2; details: not given

Row | Ki | SMILES
78 | 1.9 µM | CS(=O)(=O)N(Cc1ccccc1-c1ccccc1)[C@H]1CCNC1
79 | 1.2 µM | CC(C)C(=O)N(Cc1ccccc1-c1ccccc1)[C@H]1CCNC1

molecular target: Sodium-dependent dopamine transporter (Homo sapiens, UniProt Q01959); test: Inhibition of [3H]dopamine reuptake at human DAT expressed in HEK293 cells by SPA; format: cell-based; details: not given
Sequence (Q01959 whole entry): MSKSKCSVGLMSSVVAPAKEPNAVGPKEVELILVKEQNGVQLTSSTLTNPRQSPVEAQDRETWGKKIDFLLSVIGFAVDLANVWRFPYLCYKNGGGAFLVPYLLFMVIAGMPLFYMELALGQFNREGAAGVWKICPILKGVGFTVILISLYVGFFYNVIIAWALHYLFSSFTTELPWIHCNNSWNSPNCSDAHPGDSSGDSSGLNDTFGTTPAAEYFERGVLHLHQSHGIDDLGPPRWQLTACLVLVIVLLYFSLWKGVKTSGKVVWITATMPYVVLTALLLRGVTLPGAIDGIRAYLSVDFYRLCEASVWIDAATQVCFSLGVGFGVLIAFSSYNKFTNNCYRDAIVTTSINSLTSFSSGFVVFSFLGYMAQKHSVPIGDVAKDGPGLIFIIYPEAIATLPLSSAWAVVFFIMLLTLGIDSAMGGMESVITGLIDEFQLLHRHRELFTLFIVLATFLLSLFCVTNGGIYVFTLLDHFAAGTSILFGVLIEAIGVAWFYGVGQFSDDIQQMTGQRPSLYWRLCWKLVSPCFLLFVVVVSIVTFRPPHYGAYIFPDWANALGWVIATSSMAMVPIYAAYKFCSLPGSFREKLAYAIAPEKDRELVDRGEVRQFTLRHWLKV

Row | Ki | SMILES
80 | 2.92 µM | CC(C)C(=O)N(Cc1ccccc1C1CC1)[C@H]1CCNC1
81 | 1.38 µM | CSc1ccccc1CN(C(=O)C(C)C)[C@H]1CCNC1
82 | 3.74 µM | CC(C)C(=O)N(Cc1ccccc1-c1ccccc1)[C@H]1CCNC1

Continued, compound first:

Row | SMILES | Ki
83 | CCCC(=O)N(Cc1ccccc1-c1ccccc1)[C@H]1CCNC1 | 2.61 µM
84 | CS(=O)(=O)N(Cc1ccccc1Oc1ccccc1)[C@H]1CCNC1 | 2.55 µM
85 | CS(=O)(=O)N(Cc1ccccc1-c1ccccc1)[C@@H]1CCNC1 | 2.39 µM
86 | CCS(=O)(=O)N(Cc1ccccc1-c1ccccc1)[C@H]1CCNC1 | 2.76 µM
87 | O=CN(Cc1ccccc1-c1ccccc1)[C@H]1CCNC1 | 2.13 µM
88 | c1ccc(-c2ccccc2CN[C@H]2CCNC2)cc1 | 2.47 µM
89 | CCOC(=O)N(Cc1ccccc1-c1ccccc1)[C@@H]1CCNC1 | 2.91 µM
90 | CS(=O)(=O)N(Cc1ccccc1-c1ccccc1)[C@H]1CCNC1 | 2.67 µM
91 | CN(C)S(=O)(=O)N(Cc1ccccc1-c1ccccc1)[C@H]1CCNC1 | 2.69 µM
92 | O=C(N1CCCC1)N(Cc1ccccc1-c1ccccc1)[C@H]1CCNC1 | 4.19 µM

molecular target: T1, Cytochrome P450 1A2 (Homo sapiens, UniProt P05177); test: Inhibition of CYP1A2; format: ADME; details: not given
T1 sequence (P05177 whole entry): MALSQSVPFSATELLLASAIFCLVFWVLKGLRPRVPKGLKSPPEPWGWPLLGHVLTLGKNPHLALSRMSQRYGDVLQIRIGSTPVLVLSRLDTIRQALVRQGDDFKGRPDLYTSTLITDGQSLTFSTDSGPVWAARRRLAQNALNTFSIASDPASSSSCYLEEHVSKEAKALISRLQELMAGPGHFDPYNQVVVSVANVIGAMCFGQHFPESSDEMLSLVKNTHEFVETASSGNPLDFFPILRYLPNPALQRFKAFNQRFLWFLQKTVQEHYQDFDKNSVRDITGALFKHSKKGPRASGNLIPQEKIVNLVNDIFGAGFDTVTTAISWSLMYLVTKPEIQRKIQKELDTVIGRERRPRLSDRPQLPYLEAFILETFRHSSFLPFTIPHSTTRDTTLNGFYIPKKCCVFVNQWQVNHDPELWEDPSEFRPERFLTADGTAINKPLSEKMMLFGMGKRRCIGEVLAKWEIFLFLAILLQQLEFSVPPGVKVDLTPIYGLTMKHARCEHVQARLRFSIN

Row | IC50 | SMILES
93 | > 3 µM | CS(=O)(=O)N(Cc1ccccc1-c1ccccc1)[C@H]1CCNC1
94 | > 3 µM | CC(C)C(=O)N(Cc1ccccc1-c1ccccc1)[C@H]1CCNC1

molecular target: not listed separately; test: Inhibition of L type calcium channel; details: not given

Row | Ki | SMILES
95 | 1.9 µM | CS(=O)(=O)N(Cc1ccccc1-c1ccccc1)[C@H]1CCNC1
96 | > 10 µM | CC(C)C(=O)N(Cc1ccccc1-c1ccccc1)[C@H]1CCNC1
